Measured values from patent US20180015100A1, “COMBINATION PRODUCTS FOR THE TREATMENT OF BACTERIAL INFECTIONS AND METHODS OF PRODUCING OR DOSING OF SAME” (priority 2016, published 2018).
Values after ≈ are worked out from the molar mass of the structure shown. Each block holds one compound with its values, some of them ahead of it.

What was measured:
[1] = test system: Escherichia coli isolates with an ESBL-phenotype; test: In vitro MIC90 of a panel of approved antibiotics, US surveillance program; type: cell-based; settings: for MIC90: Escherichia coli, E. coli (n = 124), ESBL-phenotype, read-out: MIC90
[2] = test system: 385 Escherichia coli and 126 Klebsiella pneumoniae isolates; test: MIC, MIC50 and MIC90 by reference broth microdilution against 511 UTI/bloodstream isolates (USA and Europe 2014-2015); type: cell-based; settings: 511 isolates; for EUCAST % I: EUCAST 2016 criteria; for MIC90: read-out: MIC90
[3] = test system: Klebsiella pneumoniae isolates; test: MIC of cephalosporins alone or with clavulanate/tazobactam; type: cell-based; settings: clavulanate 2:1, tazobactam 4 μg/mL
[4] = test system: Enterobacter aerogenes isolates; test: as above; type: cell-based; settings: Klebsiella aerogenes, clavulanate 2:1, tazobactam 4 μg/mL
[5] = test system: beta-lactamase producing E. coli (CTX-M-55; CTX-M-15, TEM-OSBL); test: microbe, parasite or virus in culture; type: cell-based; settings: Escherichia coli
[6] = test system: Klebsiella oxytoca isolates; test: MIC of cephalosporins alone or with clavulanate/tazobactam; type: cell-based; settings: clavulanate 2:1, tazobactam 4 μg/mL
[7] = test system: Enterobacter cloacae isolates; test: as above; type: cell-based; settings: clavulanate 2:1, tazobactam 4 μg/mL
[8] = test system: Citrobacter freundii isolates; test: as above; type: cell-based; settings: clavulanate 2:1, tazobactam 4 μg/mL
[9] = plasma; cited from earlier work
[10] = test system: Escherichia coli isolates; test: MIC of cephalosporins alone or with clavulanate/tazobactam; type: cell-based; settings: clavulanate 2:1, tazobactam 4 μg/mL
clinical = settings: human, in vivo, po, 125 mg
Procedure: The twice daily divided dose of study drug was administered approximately 12 hours apart. All subjects randomized to placebo received placebo oral capsules that were identical to study drug capsules and given according to the same dosing schedule and same quantity of capsules as subjects randomized to receive ceftibuten and clavulanate concurrently. All SDs, as well as the first daily dose of the MD period on […] were given while the subject was fasted. […] In addition, blood samples for assessment of trough (pre-dose) concentrations were collected on day 7, day 8, day 9, and alternate days thereafter through study day 17. […] Peak concentration (Cmax), time at which Cmax was observed (Tmax), area under the concentration-time curve to infinity (AUCinf), percent coefficient of variation (% CV), elimination half-life (T1/2), apparent total clearance of the drug from plasma after oral administration (CL/F), and apparent volume of distribution during terminal phase after non-intravenous administration (Vz/F) were determined. […] Similar to above, six subjects were randomized to receive active drug and two were randomized to receive placebo. […] Safety, tolerability and PK were assessed as described above.

Compound: NCC[C@H](O)C(=O)N[C@@H]1C[C@H](N)[C@@H](O[C@H]2O[C@H](CN)[C@@H](O)[C@H](O)[C@H]2O)[C@H](O)[C@H]1O[C@H]1O[C@H](CO)[C@@H](O)[C@H](N)[C@H]1O [Amikacin]
MIC90 [1]: 8 µg/mL (≈ 13.7 µM)

Compound: C[C@H]1[C@H](NC(=O)/C(=N\OC(C)(C)C(=O)O)c2csc(N)n2)C(=O)N1S(=O)(=O)O [Aztreonam]
MIC90 [1]: > 16 µg/mL
MIC50 [2]: > 16 µg/mL
EUCAST % I [2]: 13.9%
MIC90 [2]: > 16 µg/mL

Compound: CC(C)(O/N=C(\C(=O)N[C@@H]1C(=O)N2C(C(=O)[O-])=C(C[n+]3ccccc3)CS[C@H]12)c1csc(N)n1)C(=O)O [Ceftazidime]
MIC90 [1]: > 32 µg/mL
MIC50 [2]: 16 µg/mL (≈ 29.3 µM)
EUCAST % I [2]: 16.2%
MIC90 [2]: > 32 µg/mL

Compound: O=C(O)[C@H]1/C(=C/CO)O[C@@H]2CC(=O)N21 [Clavulanate, clavulanic acid]
MIC ([3]; AKPN1159 (SHV-12)): 32 µg/mL
MIC ([3]; AKPN1161 (SHV-7)): 16 µg/mL
MIC ([3]; AKPN1162 (CTX-M-15, SHV-12)): 32 µg/mL
MIC ([3]; AKPN1166 (CTX-M-14, SHV-12)): 32 µg/mL
MIC ([3]; AKPN1167 (SHV-2)): 16 µg/mL
MIC ([4]; AEAE1027 (CTX-M-14)): 32 µg/mL
MIC ([4]; AEAE1029 (CTX-M-15)): 32 µg/mL
MIC [5]: > 32 µg/mL
MIC ([6]; AKOX1005 (SHV-2, TEM-1, DHA-1)): 32 µg/mL
MIC ([6]; AKOX1009 (CTX-M-15)): 32 µg/mL
MIC ([7]; AECL1065 (CTX-M-15)): 64 µg/mL
MIC ([7]; AECL1067 (CTX-M-3)): 64 µg/mL
MIC ([8]; ACFR1034 (CTX-M-15, TEM-OSBL)): 32 µg/mL
MIC ([8]; ACFR1035 (CTX-M-3, TEM-OSBL)): 32 µg/mL
Elimination half-life [9]: approximately 1 h
MIC ([10]; AECO001 (no ESBL)): 32 µg/mL
MIC ([10]; AECO1078 (CTX-M-15)): 32 µg/mL
MIC ([10]; AECO1147 (CTX-M-15)): 32 µg/mL
MIC ([10]; AECO1157 (CTX-M-15, TEM-OSBL)): 32 µg/mL
MIC ([10]; AECO1159 (CTX-M-15)): 32 µg/mL
MIC ([10]; AECO1169 (CTX-M-1, TEM-OSBL)): 32 µg/mL
MIC ([10]; AECO1172 (CTX-M-14)): 32 µg/mL
Tmax (clinical; Tmax): 60 min
half-life (clinical; T½): 46.5 min

Now from value to compound, other results behind:

MIC90 relative to CLSI/EUCAST breakpoint for susceptibility ([1]; E. coli isolates with ESBL-producing phenotype): above the breakpoint for susceptibility
MIC90 [1]: > 8 µg/mL
MIC50 [2]: > 8 µg/mL
MIC90 [2]: > 8 µg/mL
Compound: CO/N=C(\C(=O)N[C@@H]1C(=O)N2C(C(=O)O)=C(CSc3nc(=O)c(=O)[nH]n3C)CS[C@H]12)c1csc(N)n1 [Ceftriaxone]
EUCAST % I [2]: 1.2%

MIC90 [1]: ≤ 0.06 µg/mL
Compound: C[C@@H](O)[C@H]1C(=O)N2C(C(=O)O)=C(S[C@@H]3CN[C@H](CNS(N)(=O)=O)C3)[C@H](C)[C@H]12 [Doripenem]

MIC90 [1]: 0.25 µg/mL (≈ 0.835 µM)
MIC50 [2]: ≤ 0.12 µg/mL
MIC90 [2]: 0.5 µg/mL (≈ 1.67 µM)
Compound: C[C@@H](O)[C@H]1C(=O)N2C(C(=O)O)=C(SCCN=CN)C[C@H]12 [Imipenem]
EUCAST % I [2]: 2.7%

MIC90 [1]: > 4 µg/mL
Compound: C[C@H]1COc2c(N3CCN(C)CC3)c(F)cc3c(=O)c(C(=O)O)cn1c23 [Levofloxacin]
